The target in assay [1] is T1, transient receptor potential vanilloid-1 (TRPV1) (Rattus norvegicus, UniProt O35433).
T1 construct: rat recombinant TRPV1 stably expressed in HEK-293 cells
Kind of assay: intracellular Ca2+ (Fluo-4) assay in HEK-293 cells expressing rat TRPV1; much lower effect, if any, in wild-type cells or after I-RTX. The format is cell-based.

Assay [2] deals with T1, transient receptor potential vanilloid-1 (TRPV1). The experiment in a line: intracellular Ca2+ (Fluo-4) assay in HEK-293 cells expressing rat TRPV1. The assay is classed as cell-based.

T1 sequence (O35433 whole entry): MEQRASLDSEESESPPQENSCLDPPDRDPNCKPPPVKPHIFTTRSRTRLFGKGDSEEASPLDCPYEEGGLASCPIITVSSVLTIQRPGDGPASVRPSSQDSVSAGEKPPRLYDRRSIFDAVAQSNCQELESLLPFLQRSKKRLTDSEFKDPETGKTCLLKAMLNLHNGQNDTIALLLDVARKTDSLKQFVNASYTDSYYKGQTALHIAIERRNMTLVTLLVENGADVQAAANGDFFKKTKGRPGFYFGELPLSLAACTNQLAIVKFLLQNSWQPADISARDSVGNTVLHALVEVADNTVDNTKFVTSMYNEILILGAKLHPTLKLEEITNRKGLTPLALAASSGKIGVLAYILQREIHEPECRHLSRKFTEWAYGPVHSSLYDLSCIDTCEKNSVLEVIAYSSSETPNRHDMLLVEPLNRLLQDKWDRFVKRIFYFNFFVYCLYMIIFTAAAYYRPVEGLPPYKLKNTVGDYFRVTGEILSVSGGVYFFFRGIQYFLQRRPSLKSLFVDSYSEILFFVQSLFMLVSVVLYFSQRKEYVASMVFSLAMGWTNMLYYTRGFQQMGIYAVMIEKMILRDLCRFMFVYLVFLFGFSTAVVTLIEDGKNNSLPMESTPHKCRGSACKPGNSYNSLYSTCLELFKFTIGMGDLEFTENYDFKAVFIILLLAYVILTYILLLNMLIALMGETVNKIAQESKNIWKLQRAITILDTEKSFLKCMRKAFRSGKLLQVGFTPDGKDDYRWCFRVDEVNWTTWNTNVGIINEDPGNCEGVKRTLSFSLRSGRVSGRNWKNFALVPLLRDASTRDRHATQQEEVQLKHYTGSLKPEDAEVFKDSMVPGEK

Turning to `CCCCC[C@H](O)/C=C/C=C\C/C=C\C/C=C\CCCC(=O)NCCO` [15S-HAEA, 15(S)-hydroxy-AEA], it took 11.3 ± 0.9 µM to reach a half-maximal effect in assay [1] (EC50).
Take `CCCCC/C=C\C/C=C\C/C=C\C/C=C\CCCC(=O)NCCO` [AEA, anandamide]: the EC50 (as a rule, the concentration needed to bring the measured effect to its halfway point) in assay [2] came to 0.24 ± 0.03 µM.
